The results in this text go back to patent US10189826B2, “Heterocyclic compounds and methods of use” (Medivation Technologies LLC, priority 2015, dated 2019).

Read-outs that look alike come from different tables or passages of the source.

Series [1] can be described thus: Cytotoxicity assay (LDH release) in HepG2_LSSprom cells. The class given is cell-based. As to conditions: human, HepG2 LSSprom cells, LDH release; for IC50 at 24 h: 24 h treatment; for IC50 at 6 h: 6 h treatment. On the procedure: (§1) HepG2_LSSprom cells (SwitchGear Genomics, cat# C711010L) were cultured in DMEM with 10% of fetal bovine serum (FBS), supplemented with Puromycin (1 μg/mL), 1% Penicillin/Streptomycin (Pen-Strep), 37° C., humidified, 95% air and 5% CO2. Culture media was refreshed every 2 or 3 days. Cells were used between passage number 6-12.
For cytotoxicity assays, cells were plated out at 20,000 cells/well in transparent 96 well plates in DMEM plus 10% FBS and 1% Pen-Strep without puromycin. After 1 day, cells were treated with Compound by diluting in culture medium without FBS to a final concentration of 0.625, 1.25, 2.5, 3.75, 5 and 10 μM. Compound was prepared by dilutions of 10 mM stock aliquots. As a negative control culture medium was used without FBS plus DMSO. As maximum LDH release control (Lysis control) a lysis buffer provided by the kit manufacturer was used. Treatments with Compound were maintained for 6 h, or 24 h, in cell culture medium without serum until the cytotoxicity assay was started.
The cytotoxicity assay was performed according to the manufacturer's instructions. As maximum LDH release control (Lysis control) 3 wells per plate were treated with 10 μL of lysis buffer 45 min before the treatment was over. Briefly, after the 6 h, or 24 h, of treatment, 50 μL of media from each well was transferred to a new 96-well plate. To the transferred media, 50 μL of reconstituted substrate mix was added. The plates were covered from light and incubated at RT for 10 min. Then, 50 μL of stop solution was added to each well. The plates were then read using a Synergy 4 (Biotek) equipment recording the absorbance at 490 nm.
(§2) Five independent experiments were carried out for both luciferase and cytotoxicity assay. In each experiment, three wells were use per condition and the results are represented as means±SEM.
For cytotoxicity assay, Lysis control was taken as 100%/o of LDH release. The vehicle values were taken as basal LDH release and were subtracted to all the treatments (including vehicle itself) having this value as 0% of LDH release. The LDH release for the treatments was calculated respect to the 100% of LDH release of Lysis control normalized against vehicle. All the negatives values were taken as 0% of cytotoxicity. The graphics were made using the Graph Prism ver. 6.05 software.

In series [2] the test system is SREBP-2 transcriptional activity (SREBP2 cleavage) in HepG2_LSSprom cells. Put plainly: Luciferase reporter driven by a SREBP-2 specific promoter in HepG2_LSSprom cells. The class given is cell-based. The protocol:
Dose response effects were measured of Compounds on the transcriptional activity of a Luciferase reporter driven by a SREBP-2 specific promoter in HepG2_LSSprom cells.
as §1
For luminescence assays, cells were plated out at 20,000 cells/well in white 96 well plates in DMEM plus 10% FBS and 1% Pen-Strep without puromycin. After 1 day, cells were treated with Compound by diluting the drug in culture medium without FBS to a final concentration of 0.625, 1.25, 2.5, 3.75, 5 and 10 μM. Drug was prepared by dilutions of 10 mM stock aliquots. As control was used culture medium without FBS plus DMSO. Treatments with Compound were maintained for 6 h, or 24 h, until the luciferase assay was carried out.
After 6 h of treatments with Compound, the luciferase assay was performed. Briefly, the assay solution (buffer+substrate) was prepare just prior to use. To each well 100 μL of assay solution was added. The 96-well plate was then gently mix for 2 min and incubated for 30 min at RT protected from light. The luminescence was read using a Synergy 4 (Biotek) equipment recording luminescence with sensibility set up at 150.
as §2
For luciferase assay, Vehicle (no treatment) was taken as 100% of luciferase activity. This value represents the SREBP-2 transcriptional activity for the vehicle condition and was taken as 100% of SREBP-2 cleaved. The percentage for each treatment was calculated normalizing against the vehicle control. The graphics were made using the GraphPad Prism ver. 6.05 software. Half of maximal inhibitory concentration (IC50) of the effect of Compound on SREBP was obtain by nonlinear fit regression of mean normalized values vs. Compound concentration using the log(inhibitor) vs. response−Variable slope (four parameters) tool.

Setting [3] is: 24 h, 24 h treatment, HepG2_LSSprom cells, read-out: SREBP2 Cleavage (IC50 μM) 24 h.
The mark [4] stands for this setting: 6 h, 6 h treatment, HepG2_LSSprom cells, read-out: SREBP2 Cleavage (IC50 μM) 6 h.

As for `CC(C)(C)OC(=O)NC1CCCN(C(=O)c2ccc(-c3csc(-c4ccnc(C(C)(C)C)c4)c3)c(Cl)c2)C1` (racemic) [Compound 19, tert-butyl N-(1-{4-[5-(2-tert-butylpyridin-4-yl)thiophen-3-yl]-3-chlorobenzoyl}piperidin-3-yl)carbamate], the concentration for half-maximal inhibition (IC50) at 24 h in series [1] was over 3 µM. Further, in series [2] (setting [3]), the IC50 was determined as 0.25 µM.

For the molecule `CC(C)(C)c1cc(-c2cc(-c3ccc(C(=O)N4CCCC(N)C4)cc3Cl)cs2)ccn1` (racemic) [Compound 21, 1-{4-[5-(2-tert-butylpyridin-4-yl)thiophen-3-yl]-3-chlorobenzoyl}piperidin-3-amine], in series [1], the IC50 at 24 h was over 3 µM. In addition, in series [2] (setting [3]), the IC50 is over 1 µM.

On to `CC(C)(C)c1cc(-c2cc(-c3ccc(C(=O)N4CCCC(NS(C)(=O)=O)C4)cc3Cl)cs2)ccn1` (racemic) [Compound 31, N-(1-{4-[5-(2-tert-butylpyridin-4-yl)thiophen-3-yl]-3-chlorobenzoyl}piperidin-3-yl)methanesulfonamide], for which the IC50 at 24 h in series [1] is over 10 µM. For the same molecule, the half-maximal inhibitory concentration (IC50) in series [2] (setting [3]) came to 0.99 µM.

With `CC(=O)NC1CCCN(C(=O)c2ccc(-c3csc(-c4ccnc(C(C)(C)C)c4)c3)c(Cl)c2)C1` (racemic) [Compound 32, N-[1-[4-[5-(2-tert-butyl-4-pyridyl)-3-thienyl]-3-chloro-benzoyl]-3-piperidyl]acetamide], the IC50 at 24 h in series [1] is over 10 µM. In series [2] (24 h, read-out: SREBP2 Cleavage (IC50 μM) 24 h), the IC50 is 0.81 µM.

Consider `CC(C)(C)c1cc(-c2cc(-c3ccc(C(=O)N4CCCC(N5CCCC5=O)C4)cc3Cl)cs2)ccn1` (racemic) [Compound 34, 1-(1-{4-[5-(2-tert-butylpyridin-4-yl)thiophen-3-yl]-3-chlorobenzoyl}piperidin-3-yl) pyrrolidin-2-one], for which the IC50 at 24 h in series [1] is over 10 µM. Besides, in series [2] (setting [3]), the IC50 amounted to 0.85 µM.

As for `CC(C)(C)c1cc(-c2cc(-c3ccc(C(=O)N4CCCC(N5CCCS5(=O)=O)C4)cc3Cl)cs2)ccn1` (racemic) [Compound 36, 2-(1-{4-[5-(2-tert-butylpyridin-4-yl)thiophen-3-yl]-3-chlorobenzoyl}piperidin-3-yl)-1λ^6,2-thiazolidine-1,1-dione], in series [1], the IC50 at 24 h was over 10 µM. In addition, the IC50 in series [2] (setting [3]) turned out to be 0.49 µM.

As to `CC1(N)CCCN(C(=O)c2ccc(-c3cc(-c4ccnc(C(C)(C)C)c4)cs3)c(Cl)c2)C1` (single isomer, unassigned) [Compound 95a], the concentration for half-maximal inhibition (IC50) at 24 h in series [1] was over 10 µM. Further, the IC50 in series [2] (24 h treatment, HepG2_LSSprom cells, read-out: SREBP2 Cleavage (IC50 μM) 24 h) is 0.26 µM.

Regarding `CC(C)(C)c1cc(-c2cc(-c3ccc(C(=O)N4CCNC(=O)C4)cc3Cl)cs2)ccn1` [Compound 7, 4-{4-[5-(2-tert-butylpyridin-4-yl)thiophen-3-yl]-3-chlorobenzoyl}piperazin-2-one], the half-maximal inhibitory concentration (IC50) at 24 h in series [1] is over 3 µM. Moreover, in series [2] (setting [3]), the IC50 was over 1 µM.

For `CC(C)(C)c1cc(-c2cc(-c3ccc(C(=O)NC4CCC4)cc3Cl)cs2)ccn1` [Compound 8, 4-[5-(2-tert-butylpyridin-4-yl)thiophen-3-yl]-3-chloro-N-cyclobutylbenzamide], the IC50 at 24 h in series [1] was over 3 µM. Besides, in series [2] (setting [3]), the IC50 is over 3 µM.

Consider `CN1CCN(C(=O)c2ccc(-c3csc(-c4ccnc(C(C)(C)C)c4)c3)c(Cl)c2)CC1` [Compound 10, 1-{4-[5-(2-tert-butylpyridin-4-yl)thiophen-3-yl]-3-chlorobenzoyl}-4-methylpiperazine], for which, in series [2] (setting [3]), the IC50 is over 3 µM.

On to `CC(C)(C)c1cc(-c2cc(-c3ccc(C(=O)N4CCCCC4)cc3Cl)cs2)ccn1` [Compound 11, 2-tert-butyl-4-{4-[2-chloro-4-(piperidine-1-carbonyl)phenyl]thiophen-2-yl}pyridine], for which, in series [1], the 50% inhibitory concentration (IC50) at 6 h was over 10 µM. Further, the concentration for half-maximal inhibition (IC50) in series [2] (setting [4]) was under 1 µM; in series [2] (setting [3]), 0.3 µM.

In the case of `CC(C)(C)c1cc(-c2cc(-c3ccc(C(=O)N4CCC(F)(F)C4)cc3Cl)cs2)ccn1` [Compound 12, 2-tert-butyl-4-{4-[2-chloro-4-(3,3-difluoropyrrolidine-1-carbonyl)phenyl]thiophen-2-yl}pyridine], in series [1], the IC50 at 6 h is over 10 µM. The half-maximal inhibitory concentration (IC50) is over 10 µM in series [2] (setting [4]) and 0.5 µM in series [2] (setting [3]).

With `CC(C)(C)c1cc(-c2cc(-c3ccc(C(=O)N4CCC(F)(F)CC4)cc3Cl)cs2)ccn1` [Compound 13, 2-tert-butyl-4-{4-[2-chloro-4-(4,4-difluoropiperidine-1-carbonyl)phenyl]thiophen-2-yl}pyridine], the IC50 at 6 h in series [1] was over 10 µM. Besides, the results for the IC50 in series [2] (setting [4]) and in series [2] (setting [3]) were over 10 µM and 0.54 µM, respectively.

With `CC(C)(C)c1cc(-c2cc(-c3ccc(C(=O)NC4CC4)cc3Cl)cs2)ccn1` [Compound 14, 4-[5-(2-tert-butylpyridin-4-yl)thiophen-3-yl]-3-chloro-N-cyclopropylbenzamide], the IC50 in series [2] (setting [4]) was determined as 3.17 µM.

On to `CC(C)(C)NC(=O)c1ccc(-c2csc(-c3ccnc(C(C)(C)C)c3)c2)c(Cl)c1` [Compound 15, N-tert-butyl-4-[5-(2-tert-butylpyridin-4-yl)thiophen-3-yl]-3-chlorobenzamide], for which the half-inhibitory concentration (IC50) in series [2] (setting [4]) is over 5 µM.

Turning to `Cc1sc(-c2ccnc(C(C)(C)C)c2)cc1-c1ccc(C(=O)N2CCCCC2)cc1Cl` [Compound 16, 2-tert-butyl-4-{4-[2-chloro-4-(piperidine-1-carbonyl)phenyl]-5-methylthiophen-2-yl}pyridine], in series [1], the half-maximal inhibitory concentration (IC50) at 24 h is over 3 µM. In series [2] (setting [3]), the concentration for half-maximal inhibition (IC50) was 0.81 µM.

On to `O=C(c1ccc(-c2csc(-c3ccnc(N4CCCCC4)c3)n2)c(Cl)c1)N1CCOCC1` [Compound 17, 4-(3-chloro-4-{2-[2-(piperidin-1-yl)pyridin-4-yl]-1,3-thiazol-4-yl}benzoyl) morpholine], for which the IC50 in series [2] (setting [4]) and in series [2] (setting [3]) was over 3 µM in each case.

For the molecule `CC(O)CNC(=O)c1ccc(-c2csc(-c3ccnc(N4CCCCC4)c3)n2)c(Cl)c1` (stereo not shown) [Compound 18, 3-chloro-N-(2-hydroxypropyl)-4-{2-[2-(piperidin-1-yl)pyridin-4-yl]-1,3-thiazol-4-yl}benzamide], the 50% inhibitory concentration (IC50) in series [2] (setting [4]) and in series [2] (setting [3]) was over 3 µM each time.

For `CC(C)(C)OC(=O)N[C@@H]1CCCN(C(=O)c2ccc(-c3csc(-c4ccnc(C(C)(C)C)c4)c3)c(Cl)c2)C1` [Compound 19a, tert-butyl (R)-(1-(4-(5-(2-(tert-butyl)pyridin-4-yl)thiophen-3-yl)-3-chlorobenzoyl)piperidin-3-yl)carbamate], in series [1], the IC50 at 24 h was over 10 µM. In addition, in series [2] (setting [3]), the 50% inhibitory concentration (IC50) was 0.069 µM.

In the case of `CC(C)(C)OC(=O)N[C@H]1CCCN(C(=O)c2ccc(-c3csc(-c4ccnc(C(C)(C)C)c4)c3)c(Cl)c2)C1` [Compound 19b, tert-butyl (S)-(1-(4-(5-(2-(tert-butyl)pyridin-4-yl)thiophen-3-yl)-3-chlorobenzoyl)piperidin-3-yl)carbamate], the IC50 at 24 h in series [1] is over 10 µM. The 50% inhibitory concentration (IC50) in series [2] (setting [3]) worked out at 0.22 µM.

With `CC(C)(C)c1cc(-c2cc(-c3ccc(C(=O)N4CCS(=O)(=O)CC4)cc3Cl)cs2)ccn1` [Compound 20, 4-{4-[5-(2-tert-butylpyridin-4-yl)thiophen-3-yl]-3-chlorobenzoyl}-1λ^6,4-thiomorpholine-1,1-dione], the IC50 in series [2] (setting [3]) was over 3 µM.

`CC(C)(C)c1cc(-c2cc(-c3ccc(C(=O)N4CCC[C@@H](N)C4)cc3Cl)cs2)ccn1` [Compound 21a, (R)-(3-aminopiperidin-1-yl)(4-(5-(2-(tert-butyl)pyridin-4-yl)thiophen-3-yl)-3-chlorophenyl)methanone]: in series [1], the concentration for half-maximal inhibition (IC50) at 24 h was over 10 µM. Further, the IC50 in series [2] (setting [3]) was 0.71 µM.
